Laboratory results as given in patent US20080234373A1, “Compound Useful For the Prevention and Treatment of Left Ventricular Hypertrophy in Dialysed Patients” (SIGMA-TAU INDUSTRIE FARMACEUTICHE RIUNITE S.P.A., priority 2005, published 2008).

Experiments:
[1] = system: left ventricular (LV) muscle mass and LV systolic and diastolic function; settings: 58 patients with primary glomerulonephritis and moderate chronic renal failure; cited from earlier work
[2] = system: left ventricular hypertrophy (LVH) in ESRD dialysed patients; experiment: Clinical trial of propionyl L-carnitine in ESRD patients on dialysis (multicentre, randomized, double-blind, placebo-controlled; echocardiography); type: in vivo
Method: A clinical trial (multicentre, parallel, randomized, double-blind, dose-ranging placebo-controlled study in 300 patients) useful for evaluating both preventive and/or curative effect of the treatment with propionyl L-carnitine (3 and 6 mg/kg given intravenously three times a week at the end of the hemodyalisis session for 26 weeks) has been done.
Inclusion Criteria • 1) male or female out-patients aged >18 years, suffering from ESRD on bicarbonate dialysis three times a week; • 2) patients who have reached a certain degree of dialytic stability (at least since six months on dialysis), so that the variability due to the progressive patient adaptation of the therapeutic treatment is controlled, presenting no clinical signs of hydric overload at the end of dialysis; • 3) patients showing a degree of cardiac deterioration defined as inter-ventricular septum and left ventricular wall thickness >11 mm; • 4) patients with left ventricular ejection fraction >40%; • 5) patients under stable pharmacological treatment for at least three months; • 6) absence of acute ischaemic events (effort angina, unstable angina, AMI) during the last three months; • 7) presence of an adequate acoustic window and a good echogenicity; • 8) capacity of co-operating with the administered questionnaire. […]

SMILES | LV ejection fraction, early and late transmittal flow velocities and early to late LV inflow velocities ratio [1] | signs of LVH (a)-(c): left-ventricular septum and posterior wall thickness, end-systolic and end-diastolic size and volume, ejection fraction ([2]; 3 and 6 mg/kg intravenously three times a week at end of hemodialysis for 26 weeks, preliminary ANOVA analysis, treated versus control group) | progression of the signs of LVH (a)-(c) respect to base line ([2]; 3 and 6 mg/kg intravenously three times a week for 26 weeks, T26 vs T0 in treated group, control group worsened)
C[C@H](CS)C(=O)N1CCC[C@H]1C(=O)O [captopril] | not significantly affected | – | –
CCC(=O)O[C@H](CC(=O)[O-])C[N+](C)(C)C [propionyl L-carnitine] | – | useful for treating the signs of LVH | able to reduce the progression of the signs of LVH
CCOC(=O)[C@H](CCc1ccccc1)N[C@@H](C)C(=O)N1CCC[C@H]1C(=O)O [enalapril] | not significantly affected | – | –
